Data taken from patent US20020137929A1, “1 - (3-heterocyclylphenyl) isothiourea, -isourea, -guanidine and -amidine herbicidal agents” (Intellectual Property Department, BASF Aktiengesellschaft, priority 1998, published 2002).

Tests used:
[1] = test system: ECHCG (Barnyardgrass); experiment: Preemergence herbicidal evaluation; type: in vivo, Echinochloa crus-galli; conditions: rated 4-5 weeks after treatment
Method in brief: (§1)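 Greenhouse preemergence test: seed-soil mix sown on ~1 inch soil; aqueous acetone spray at equivalent of ~0.0156–0.500 kg/ha; greenhouse-held and watered; scored 0–9 visually at 4–5 weeks.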

[2] = test system: ECHORC (Watergrass (Calif.)); experiment: Postemergence weed control under flooded paddy conditions; type: in vivo, Echinochloa oryzoides; conditions: postemergence weeds, 3-4 weeks after treatment
Method in brief: (§2)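 With weeds 3 to 5 cm tall and rice at the 1.5 to 2.5 leaf stage, containers were flooded and water held 1.5 to 3 cm above soil. Compounds in 50/50 v/v aqueous/acetone went into the flood water at about 0.0313 to 0.500 kg/ha a.i. Effects were visually rated 0–9 against controls after three to four weeks in the greenhouse.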

[3] = test system: ABUTH (Velvetleaf); experiment: Preemergence herbicidal evaluation; type: in vivo, Abutilon theophrasti; conditions: rated 4-5 weeks after treatment
Method in brief: as §1

[4] = test system: SETVI (Foxtail, Green); experiment: Preemergence herbicidal evaluation; type: in vivo, Setaria viridis; conditions: rated 4-5 weeks after treatment
Method in brief: as §1

[5] = test system: GALAP (Galium); experiment: Postemergence herbicidal evaluation; type: in vivo, Galium aparine; conditions: postemergence
Method in brief: (§3)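 Young plants, roughly two weeks from seeding, receive the active ingredient as a sprayed dispersion (acetone/water 50/50, 0.5% TWEEN 20) at 40 psi. Doses span about 0.0156 to 0.500 kg/ha. A visual score from 0 to 9 compares treated with control plants four to five weeks on.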

[6] = test system: ZEAMX (Corn, Field); experiment: Preemergence herbicidal evaluation; type: in vivo, Zea mays; conditions: rated 4-5 weeks after treatment
Method in brief: as §1

[7] = test system: CYPIR (Rice Flatsedge); experiment: Preemergence weed control under flooded paddy conditions; type: in vivo, Cyperus iria; conditions: rated 3-4 weeks after treatment
Method in brief: (§4)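 Seeds or propagules sown in top 0.5 cm of silt loam soil, flooded 1.5 to 3 cm above surface throughout. Compound in 50/50 v/v aqueous/acetone pipetted into flood water at about 0.0313 to 0.500 kg/ha. Visual 0-9 rating versus control after three to four weeks in greenhouse.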

[8] = test system: ECHORC (Watergrass (Calif.)); experiment: as above; type: in vivo, Echinochloa oryzoides; conditions: rated 3-4 weeks after treatment
Method in brief: as §4

[9] = test system: TRZAWR (Wheat, Winter, cv Riband); experiment: Postemergence herbicidal evaluation; type: in vivo, Triticum aestivum; conditions: postemergence
Method in brief: as §3

[10] = test system: MOOVA (Monochoria); experiment: Preemergence weed control under flooded paddy conditions; type: in vivo, Monochoria vaginalis; conditions: rated 3-4 weeks after treatment
Method in brief: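 Greenhouse paddy assay. Acetone/water (50/50 v/v) solutions dosed into flood water, equivalent to about 0.0313 to 0.500 kg/ha active ingredient, over seeds planted 0.5 cm deep in silt loam. Score: 0-9 visual, based on stand, vigor, malformation, size and chlorosis, 3 to 4 weeks after treatment.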

[11] = test system: SETVI (Foxtail, Green); experiment: Postemergence herbicidal evaluation; type: in vivo, Setaria viridis; conditions: postemergence
Method in brief: as §3

[12] = test system: SAGPY (Arrowhead (Pygmaea)); experiment: Postemergence weed control under flooded paddy conditions; type: in vivo, Sagittaria pygmaea; conditions: postemergence weeds, 3-4 weeks after treatment
Method in brief: as §2

## CN1C(=O)C(F)SC1=Nc1cc(N2C(=O)C3=C(CCCC3)C2=O)c(F)cc1Cl (stereo not shown) [Compound 5, N-{4-chloro-2-fluoro-5-[(5-fluoro-3-methyl-4-oxo-2-thiazolidinylidene)amino]phenyl}-1-cyclohexene-1,2-dicarboximide]
[1]; rate 0.0625 kg/ha
  ECHCG preemergence herbicidal rating: 0.0
[1]; rate 0.1250 kg/ha
  ECHCG preemergence herbicidal rating: 2.0
[1]; rate 0.2500 kg/ha
  ECHCG preemergence herbicidal rating: 6.0
[1]; rate 0.5000 kg/ha
  ECHCG preemergence herbicidal rating: 7.0
[2]; rate 0.1250 kg/ha
  Herbicidal rating ECHORC: 0.5
[2]; rate 0.2500 kg/ha
  Herbicidal rating ECHORC: 1.0
[2]; rate 0.5000 kg/ha
  Herbicidal rating ECHORC: 2.0
[3]; rate 0.0625 kg/ha
  ABUTH preemergence herbicidal rating: 0.0
[3]; rate 0.1250 kg/ha
  ABUTH preemergence herbicidal rating: 0.0
[3]; rate 0.2500 kg/ha
  ABUTH preemergence herbicidal rating: 0.0
[3]; rate 0.5000 kg/ha
  ABUTH preemergence herbicidal rating: 0.0
[4]; rate 0.0625 kg/ha
  SETVI preemergence herbicidal rating: 0.0
[4]; rate 0.1250 kg/ha
  SETVI preemergence herbicidal rating: 2.0
[4]; rate 0.2500 kg/ha
  SETVI preemergence herbicidal rating: 6.0
[4]; rate 0.5000 kg/ha
  SETVI preemergence herbicidal rating: 9.0
[5]; rate 0.0157 kg/ha
  GALAP herbicidal rating: 0.0
[5]; rate 0.0313 kg/ha
  GALAP herbicidal rating: 2.0
[5]; rate 0.0625 kg/ha
  GALAP herbicidal rating: 8.0
[5]; rate 0.1250 kg/ha
  GALAP herbicidal rating: 9.0
[5]; rate 0.2500 kg/ha
  GALAP herbicidal rating: 9.0
[5]; rate 0.5000 kg/ha
  GALAP herbicidal rating: 9.0
[6]; rate 0.0625 kg/ha
  ZEAMX preemergence herbicidal rating: 0.0
[6]; rate 0.1250 kg/ha
  ZEAMX preemergence herbicidal rating: 1.0
[6]; rate 0.2500 kg/ha
  ZEAMX preemergence herbicidal rating: 2.0
[6]; rate 0.5000 kg/ha
  ZEAMX preemergence herbicidal rating: 2.0
[7]; 0.1250 kg/ha
  Herbicidal rating CYPIR: 0.0
[7]; 0.2500 kg/ha
  Herbicidal rating CYPIR: 0.0
[7]; 0.5000 kg/ha
  Herbicidal rating CYPIR: 0.0
[8]; 0.1250 kg/ha
  Herbicidal rating ECHORC: 1.0
[8]; 0.2500 kg/ha
  Herbicidal rating ECHORC: 2.0
[8]; 0.5000 kg/ha
  Herbicidal rating ECHORC: 4.0
[9]; rate 0.0157 kg/ha
  TRZAWR herbicidal rating: 3.0
[9]; rate 0.0313 kg/ha
  TRZAWR herbicidal rating: 3.0
[9]; rate 0.0625 kg/ha
  TRZAWR herbicidal rating: 3.5
[9]; rate 0.1250 kg/ha
  TRZAWR herbicidal rating: 4.5
[9]; rate 0.2500 kg/ha
  TRZAWR herbicidal rating: 5.0
[9]; rate 0.5000 kg/ha
  TRZAWR herbicidal rating: 4.5
[10]; 0.1250 kg/ha
  Herbicidal rating MOOVA: 2.0
[10]; 0.2500 kg/ha
  Herbicidal rating MOOVA: 4.0
[10]; 0.5000 kg/ha
  Herbicidal rating MOOVA: 8.0
[11]; rate 0.0157 kg/ha
  SETVI herbicidal rating: 0.0
[11]; rate 0.0313 kg/ha
  SETVI herbicidal rating: 0.0
[11]; rate 0.0625 kg/ha
  SETVI herbicidal rating: 2.0
[11]; rate 0.1250 kg/ha
  SETVI herbicidal rating: 4.0
[11]; rate 0.2500 kg/ha
  SETVI herbicidal rating: 8.0
[11]; rate 0.5000 kg/ha
  SETVI herbicidal rating: 4.0
[12]; rate 0.1250 kg/ha
  Herbicidal rating SAGPY: 0.0
[12]; rate 0.2500 kg/ha
  Herbicidal rating SAGPY: 0.0
[12]; rate 0.5000 kg/ha
  Herbicidal rating SAGPY: 0.0

## CN1C(=O)CSC1=Nc1cc(N2C(=O)C3=C(CCCC3)C2=O)c(F)cc1Cl [Compound 1, N-{4-chloro-2-fluoro-5-[(3-methyl-4-oxo-2-thiazolidinylidene)amino]phenyl}-1-cyclohexene-1,2-dicarboximide]
[1]; rate 0.0313 kg/ha
  ECHCG preemergence herbicidal rating: 2.0
[1]; rate 0.0625 kg/ha
  ECHCG preemergence herbicidal rating: 5.0
[1]; rate 0.1250 kg/ha
  ECHCG preemergence herbicidal rating: 6.0
[1]; rate 0.2500 kg/ha
  ECHCG preemergence herbicidal rating: 5.0
[1]; rate 0.5000 kg/ha
  ECHCG preemergence herbicidal rating: 7.7
[2]; rate 0.0313 kg/ha
  Herbicidal rating ECHORC: 1.0
[2]; rate 0.0625 kg/ha
  Herbicidal rating ECHORC: 2.0
[2]; rate 0.1250 kg/ha
  Herbicidal rating ECHORC: 3.0
[2]; rate 0.2500 kg/ha
  Herbicidal rating ECHORC: 3.5
[2]; rate 0.5000 kg/ha
  Herbicidal rating ECHORC: 5.5
[3]; rate 0.0313 kg/ha
  ABUTH preemergence herbicidal rating: 5.0
[3]; rate 0.0625 kg/ha
  ABUTH preemergence herbicidal rating: 9.0
[3]; rate 0.1250 kg/ha
  ABUTH preemergence herbicidal rating: 9.0
[3]; rate 0.2500 kg/ha
  ABUTH preemergence herbicidal rating: 9.0
[3]; rate 0.5000 kg/ha
  ABUTH preemergence herbicidal rating: 9.0
[4]; rate 0.0313 kg/ha
  SETVI preemergence herbicidal rating: 5.0
[4]; rate 0.0625 kg/ha
  SETVI preemergence herbicidal rating: 9.0
[4]; rate 0.1250 kg/ha
  SETVI preemergence herbicidal rating: 8.0
[4]; rate 0.2500 kg/ha
  SETVI preemergence herbicidal rating: 9.0
[4]; rate 0.5000 kg/ha
  SETVI preemergence herbicidal rating: 8.0
[5]; rate 0.0157 kg/ha
  GALAP herbicidal rating: 4.0
[5]; rate 0.0313 kg/ha
  GALAP herbicidal rating: 6.0
[5]; rate 0.0625 kg/ha
  GALAP herbicidal rating: 6.0
[5]; rate 0.1250 kg/ha
  GALAP herbicidal rating: 8.0
[5]; rate 0.2500 kg/ha
  GALAP herbicidal rating: 9.0
[5]; rate 0.5000 kg/ha
  GALAP herbicidal rating: 9.0
[6]; rate 0.0313 kg/ha
  ZEAMX preemergence herbicidal rating: 0.0
[6]; rate 0.0625 kg/ha
  ZEAMX preemergence herbicidal rating: 0.0
[6]; rate 0.1250 kg/ha
  ZEAMX preemergence herbicidal rating: 0.0
[6]; rate 0.2500 kg/ha
  ZEAMX preemergence herbicidal rating: 0.0
[6]; rate 0.5000 kg/ha
  ZEAMX preemergence herbicidal rating: 2.0
[7]; 0.0313 kg/ha
  Herbicidal rating CYPIR: 2.0
[7]; 0.0625 kg/ha
  Herbicidal rating CYPIR: 7.0
[7]; 0.1250 kg/ha
  Herbicidal rating CYPIR: 9.0
[7]; 0.2500 kg/ha
  Herbicidal rating CYPIR: 9.0
[7]; 0.5000 kg/ha
  Herbicidal rating CYPIR: 9.0
[8]; 0.0313 kg/ha
  Herbicidal rating ECHORC: 2.0
[8]; 0.0625 kg/ha
  Herbicidal rating ECHORC: 4.0
[8]; 0.1250 kg/ha
  Herbicidal rating ECHORC: 6.0
[8]; 0.2500 kg/ha
  Herbicidal rating ECHORC: 7.0
[8]; 0.5000 kg/ha
  Herbicidal rating ECHORC: 9.0
[9]; rate 0.0157 kg/ha
  TRZAWR herbicidal rating: 2.5
[9]; rate 0.0313 kg/ha
  TRZAWR herbicidal rating: 3.5
[9]; rate 0.0625 kg/ha
  TRZAWR herbicidal rating: 4.0
[9]; rate 0.1250 kg/ha
  TRZAWR herbicidal rating: 5.0
[9]; rate 0.2500 kg/ha
  TRZAWR herbicidal rating: 5.5
[9]; rate 0.5000 kg/ha
  TRZAWR herbicidal rating: 6.0
[10]; 0.0313 kg/ha
  Herbicidal rating MOOVA: 8.0
[10]; 0.0625 kg/ha
  Herbicidal rating MOOVA: 9.0
[10]; 0.1250 kg/ha
  Herbicidal rating MOOVA: 9.0
[10]; 0.2500 kg/ha
  Herbicidal rating MOOVA: 9.0
[10]; 0.5000 kg/ha
  Herbicidal rating MOOVA: 9.0
[11]; rate 0.0157 kg/ha
  SETVI herbicidal rating: 1.0
[11]; rate 0.0313 kg/ha
  SETVI herbicidal rating: 3.0
[11]; rate 0.0625 kg/ha
  SETVI herbicidal rating: 4.0
[11]; rate 0.1250 kg/ha
  SETVI herbicidal rating: 7.0
[11]; rate 0.2500 kg/ha
  SETVI herbicidal rating: 7.0
[11]; rate 0.5000 kg/ha
  SETVI herbicidal rating: 9.0
[12]; rate 0.0313 kg/ha
  Herbicidal rating SAGPY: 0.0
[12]; rate 0.0625 kg/ha
  Herbicidal rating SAGPY: 0.0
[12]; rate 0.1250 kg/ha
  Herbicidal rating SAGPY: 0.0
[12]; rate 0.2500 kg/ha
  Herbicidal rating SAGPY: 0.0
[12]; rate 0.5000 kg/ha
  Herbicidal rating SAGPY: 0.0
